US9307761B2, “Microbial composition” (Rohm and Haas Company, priority 2011, dated 2016)

Columns and labels:
Assay type in all cases: cell-based
[1] = test system: Escherichia coli (10536 strain); test: 15 seconds contact kill assay of actives in water, mean bacterial survival NMBS; conditions: for NMBS: alone, 15 seconds contact
[2] = test system: Escherichia coli (E. coli—ATCC #10536); test: Automated assessment of efficacy in model surfactant medium (2.85% sodium cocoyl glycinate and 1.85% sodium lauroamphoacetate), 15 seconds exposure, delta OD450/OD590; conditions: for MBC: Escherichia coli, ATCC10536, 15 s, in 2.85% sodium cocoyl glycinate + 1.85% sodium lauroamphoacetate solution at pH 10, E. coli, read-out: MBC (minimum biocidal concentration); for No. of replicates showing growth (out of 4) / Δ OD 450 nm = OD450 (time = 16 hours) − OD450 (time zero), Mean / Δ OD 590 nm OD590 (time = 16 hours) − OD590 (time zero), Mean / MBC of phenol: model surfactant solution; for No. of replicates showing growth (out of 4) / Δ OD 450 nm = OD450 (time = 16 hours) − OD450 (time zero), Mean / Δ OD 590 nm OD590 (time = 16 hours) − OD590 (time zero), Mean: 15 s exposure; for MBC of phenol: phenol alone, complete bacterial kill against E. coli
Experimental: Micobiocidal Activity of Actives as Per the Invention in a Model Surfactant Medium Test Methodology for Automated Assessment of Efficacy in Surfactant Base
Solutions were prepared such that the concentrations of the surfactant components and test actives were 1.1×the final desired concentration in order to allow for dilution with the bacterial inoculum in the test. The solutions were manually adjusted to […] by dropwise addition of sodium hydroxide solution, as measured with a pH meter at ambient temperature.
Tests were conducted using standard microtiter plate assays using an automated liquid handling system, 270 μl of the surfactant test solution was pipetted into each well of the microtitre plate and 30 μl of the bacterial suspension was then added. After exactly 15 seconds of bacterial exposure, a 30 μl volume of bacterial cells was withdrawn and transferred to 270 μl of D/E quench solution. After 5 minutes in the D/E quench, the optical density (OD) was measured for each plate in turn at two specific wavelengths (450 nm and 590 nm). These provide a dual check of antimicrobial activity, as the OD450 reading is specific for the yellow colour of D/E quench when bacterial growth is observed, whereas OD590 is specific for the initial purple colour of the D/E quench which is retained if no bacterial growth is observed. After the time zero OD measurements, plates were then incubated at 37° C. overnight (16 hours) before repeating the OD measurements. Delta OD values were calculated by subtracting […]. Bacterial growth is observed as art increase in OD450 and a decrease in ΔOD590. To identify antibacterially efficacious systems (those preventing appreciable bacterial growth after incubation), the following threshold changes in OD readings have been adopted: if (1). OD450 increases by less than 0.2 absorbance unit on incubation and (2). OD590 decreases by less than 0.35 unit on incubation. Conversely, where OD450 increases by more than 0.2 AU and OD590 decreases by more than 0.35 unit after incubation, corresponding to a colour shift from purple to yellow, the test system allows bacterial growth and is not deemed efficacious, four replicate measurements in the same plate have been made for each test system. The number of replicate wells showing either bacterial growth or no growth is also readily assessed by eye by following the colour change.
Dose responses for individual components and binary mixtures of actives at a fixed concentration ratio were generated by sequential dilution of liquors with further surfactant solution to obtain a series of endpoints.
In some selected cases, the combinations were also tested at the weight ratio 1:1.

[3] = test system: Escherichia coli (E. coli—ATCC #10536); test: Synergy tests: high resolution MBC microtiter plate assay, 15 seconds contact, phosphate buffer containing […] dipropylene glycol; conditions: E. coli 10536; for SI (Synergy Index = Qa/QA + Qb/QB): at Qa and Qb, <1 synergy, 1 additivity, >1 antagonism
From the text: The concentrations and ratios may also vary under different test conditions or with different test methods.
One measure of synergy is the industrially accepted method described by Kull, F. C.; Eisman, P. C.; Sylwestrowicz, H. D. and Mayer, R. L., in Applied Microbiology 9:538-541 (1961), using the ratio determined by the formula: Qa/QA+Qb/QB=Synergy Index (“SI”) wherein: • QA=concentration of compound A (first component) in percent, acting alone, which produced an end point (MBC of Compound A). • Qa=concentration of compound A in percent, in the mixture, which produced an end point. • QB=concentration of compound B (second component) in percent, acting alone, which produced an end point (MBC of Compound B). • Qb=concentration of compound B in percent, in the mixture, which produced an end point.
When the sum of Qa/QA and Qb/QB is greater than one, antagonism is indicated. […] The lower the SI, the greater is the synergy shown by that particular mixture. The minimum biocidal concentration (MBC) of a microbicide is the lowest concentration tested under a specific set of conditions that provides complete kill of the tested microorganisms.
Synergy tests were conducted using standard microtiter plate assays with phosphate buffer containing 3.5% dipropylene glycol (DPG). In this method, a wide range of combinations of chemicals was tested by conducting high resolution MBC assays of Component (A) in the presence of various concentrations of Component (B). High resolution MBCs were determined by adding varying amounts of microbicide to one column of a microtiter plate and doing subsequent […] dilutions using an automated liquid handling system to obtain a series of closely spaced endpoints. The MBC plate was inoculated one column at a time with the test microorganism. An aliquot of the inoculated well was transferred at 15 seconds to a plate containing a neutralizing agent (D/E Neutralizing Broth), mixed and held for 5 minutes before being transferred to a growth plate containing trypticase soy broth (TSB). The TSB plate was incubated at 37° C. and read for the presence/absence of growth at 24 hours. The lowest level tested that provided complete kill (as evidenced by no growth in the microtitre plate) of the test organisms in 15 seconds is the minimum biocidal concentration (MBC).
The synergy of the combinations of the present invention was determined against a bacterium, Escherichia coli (E. coli—ATCC #10536), at a concentration of approximately 1×10^8 bacteria, per mL. This microorganism is representative of natural contaminants in many consumer and industrial applications.

[4] = single active alone at 0.2% w/v
[5] = single active alone at 0.3% w/v
[6] = single active alone at 0.1% w/v
[7] = single active alone at 0.175% w/v

## CC1=CC[C@@H](CO)[C@H](C)C1 (relative stereo) [Floralol, Trans-4,6-dimethyl-3-Cyclohexene-1-methanol]
[1]; 0.3% w/v, E. coli
  NMBS: 0 log CFU/ml
[1]; 0.4% w/v, E. coli
  NMBS: 0 log CFU/ml
[1]; E. coli, in water, component alone
  MBC (minimum biocidal concentration): 0.3 % w/v
[1]; […] w/v, E. coli
  NMBS: 7.92 log CFU/ml
[1]; antimicrobial alcohol alone, complete bacterial kill against E. coli
  MBC of antimicrobial alcohol: 0.3 % (w/v)
[2]
  MBC: 4000 µg/mL
[2]; [4]
  No. of replicates showing growth (out of 4): 4
  Δ OD 450 nm = OD450 (time = 16 hours) − OD450 (time zero), Mean: −1.43
  Δ OD 590 nm OD590 (time = 16 hours) − OD590 (time zero), Mean: 0.35
[2]; [5]
  No. of replicates showing growth (out of 4): 4
  Δ OD 450 nm = OD450 (time = 16 hours) − OD450 (time zero), Mean: −1.20
  Δ OD 590 nm OD590 (time = 16 hours) − OD590 (time zero), Mean: 0.55
[2]; single active alone at […] w/v
  No. of replicates showing growth (out of 4): 1
  Δ OD 450 nm = OD450 (time = 16 hours) − OD450 (time zero), Mean: −0.29
  Δ OD 590 nm OD590 (time = 16 hours) − OD590 (time zero), Mean: 0.23

## CC1=CC(C)C(CO)C(C)C1 (stereo not shown) [2,4,6-trimethyl-3-cyclohexene-1-methanol]
[3]
  SI (Synergy Index = Qa/QA + Qb/QB): 1.00
[2]
  MBC: 4000 µg/mL
[2]; [4]
  No. of replicates showing growth (out of 4): 4
  Δ OD 450 nm = OD450 (time = 16 hours) − OD450 (time zero), Mean: −1.50
  Δ OD 590 nm OD590 (time = 16 hours) − OD590 (time zero), Mean: 0.29
[2]; single active alone at […] w/v
  No. of replicates showing growth (out of 4): 4

## CC1=CCC(C(C)CO)CC1 (stereo not shown) [2-(4-methylcyclohex-3-enyl)propan-1-ol]
[3]
  SI (Synergy Index = Qa/QA + Qb/QB): 1.00

## CCCc1ccccc1O [2-propyl phenol]
[1]; phenolic compound alone, complete bacterial kill against E. coli
  MBC of phenolic compound: 0.125 % (w/v)

## CCC(C)c1ccccc1O (stereo not shown) [2-sec-butyl phenol]
[2]
  MBC of phenol: 0.175 % (w/v)

## CCC(C)c1ccccc1O (stereo not shown) [2-sec-butylphenol]
[2]; [6]
  No. of replicates showing growth (out of 4): 4
  Δ OD 450 nm = OD450 (time = 16 hours) − OD450 (time zero), Mean: −1.44
  Δ OD 590 nm OD590 (time = 16 hours) − OD590 (time zero), Mean: 0.36

## CC(C)(C)c1ccccc1O [2-ter-butylphenol]
[2]; [7]
  No. of replicates showing growth (out of 4): 4
  Δ OD 450 nm = OD450 (time = 16 hours) − OD450 (time zero), Mean: −1.08
  Δ OD 590 nm OD590 (time = 16 hours) − OD590 (time zero), Mean: 0.57

## Cc1ccc(C(C)(C)C)c(O)c1 [2-tert-butyl-5-methylphenol]
[2]
  MBC of phenol: 0.2 % (w/v)

## CC(C)(C)c1ccccc1O [2-tert-butylphenol]
[3]
  SI (Synergy Index = Qa/QA + Qb/QB): 1.00

## CC(C)(C)c1cccc(O)c1 [3-tert-butylphenol]
[3]
  SI (Synergy Index = Qa/QA + Qb/QB): 1.00
[3]; component alone, complete kill in 15 seconds
  MBC of the component acting alone (QA or QB): 0.3 weight %
